Results: publication PMC3723589 (Channels, 2010)
Where “and” joins values, the source holds several entries; their conditions need not be identical. Equal values may be shown once. Read-outs that look alike come from different tables or passages of the source.

Assays:
ROMK1 = details: cited from earlier work
[1] = system: native pH-dependent KSper K+ channel; details: 500 μM quinidine; activation at pH 7.5 and +100 mV; cited from earlier work
mouse Slo1 K+ channels [2] = target: T1, mouse Slo1 K+ channels (Mus musculus, UniProt Q08460); assay: Block of Slo1 currents, blocker applied cytosolically to inside-out patches; assay type: cell-based
T1 sequence (Q08460 66-1209 limits assumed): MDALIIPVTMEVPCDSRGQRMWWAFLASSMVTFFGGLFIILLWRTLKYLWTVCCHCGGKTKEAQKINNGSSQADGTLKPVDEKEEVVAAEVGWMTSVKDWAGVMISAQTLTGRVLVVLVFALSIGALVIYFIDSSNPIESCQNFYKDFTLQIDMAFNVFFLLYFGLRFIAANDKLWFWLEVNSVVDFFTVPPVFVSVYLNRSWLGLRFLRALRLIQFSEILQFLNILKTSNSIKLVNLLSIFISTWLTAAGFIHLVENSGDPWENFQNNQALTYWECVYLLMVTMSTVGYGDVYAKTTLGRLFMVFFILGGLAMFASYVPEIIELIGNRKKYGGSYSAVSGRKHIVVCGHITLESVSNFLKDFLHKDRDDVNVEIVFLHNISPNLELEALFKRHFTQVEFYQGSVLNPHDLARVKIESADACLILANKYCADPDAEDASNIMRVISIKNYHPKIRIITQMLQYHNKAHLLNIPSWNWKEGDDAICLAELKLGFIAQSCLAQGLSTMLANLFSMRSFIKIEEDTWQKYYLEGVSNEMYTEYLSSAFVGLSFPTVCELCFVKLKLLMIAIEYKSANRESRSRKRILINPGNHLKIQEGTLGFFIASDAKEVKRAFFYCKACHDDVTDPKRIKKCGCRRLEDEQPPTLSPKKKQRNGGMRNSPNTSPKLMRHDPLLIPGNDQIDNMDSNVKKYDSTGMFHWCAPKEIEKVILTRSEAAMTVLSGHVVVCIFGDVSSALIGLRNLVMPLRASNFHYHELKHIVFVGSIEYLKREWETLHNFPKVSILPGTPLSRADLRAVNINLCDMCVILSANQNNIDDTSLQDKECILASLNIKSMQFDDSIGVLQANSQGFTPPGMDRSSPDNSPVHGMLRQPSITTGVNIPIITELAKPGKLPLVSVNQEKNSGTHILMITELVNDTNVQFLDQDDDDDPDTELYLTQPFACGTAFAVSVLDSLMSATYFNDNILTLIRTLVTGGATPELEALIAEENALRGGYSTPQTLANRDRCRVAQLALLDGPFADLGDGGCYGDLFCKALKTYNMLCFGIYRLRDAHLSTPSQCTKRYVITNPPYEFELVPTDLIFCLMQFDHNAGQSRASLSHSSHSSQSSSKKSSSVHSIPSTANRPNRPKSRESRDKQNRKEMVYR

[3] = target: T2, MC13 (Slo1(1-181):Slo3(171-1121)) (Mus musculus, UniProt O54982); assay: Block of MC13; assay type: cell-based
T2 sequence (O54982 171-1121): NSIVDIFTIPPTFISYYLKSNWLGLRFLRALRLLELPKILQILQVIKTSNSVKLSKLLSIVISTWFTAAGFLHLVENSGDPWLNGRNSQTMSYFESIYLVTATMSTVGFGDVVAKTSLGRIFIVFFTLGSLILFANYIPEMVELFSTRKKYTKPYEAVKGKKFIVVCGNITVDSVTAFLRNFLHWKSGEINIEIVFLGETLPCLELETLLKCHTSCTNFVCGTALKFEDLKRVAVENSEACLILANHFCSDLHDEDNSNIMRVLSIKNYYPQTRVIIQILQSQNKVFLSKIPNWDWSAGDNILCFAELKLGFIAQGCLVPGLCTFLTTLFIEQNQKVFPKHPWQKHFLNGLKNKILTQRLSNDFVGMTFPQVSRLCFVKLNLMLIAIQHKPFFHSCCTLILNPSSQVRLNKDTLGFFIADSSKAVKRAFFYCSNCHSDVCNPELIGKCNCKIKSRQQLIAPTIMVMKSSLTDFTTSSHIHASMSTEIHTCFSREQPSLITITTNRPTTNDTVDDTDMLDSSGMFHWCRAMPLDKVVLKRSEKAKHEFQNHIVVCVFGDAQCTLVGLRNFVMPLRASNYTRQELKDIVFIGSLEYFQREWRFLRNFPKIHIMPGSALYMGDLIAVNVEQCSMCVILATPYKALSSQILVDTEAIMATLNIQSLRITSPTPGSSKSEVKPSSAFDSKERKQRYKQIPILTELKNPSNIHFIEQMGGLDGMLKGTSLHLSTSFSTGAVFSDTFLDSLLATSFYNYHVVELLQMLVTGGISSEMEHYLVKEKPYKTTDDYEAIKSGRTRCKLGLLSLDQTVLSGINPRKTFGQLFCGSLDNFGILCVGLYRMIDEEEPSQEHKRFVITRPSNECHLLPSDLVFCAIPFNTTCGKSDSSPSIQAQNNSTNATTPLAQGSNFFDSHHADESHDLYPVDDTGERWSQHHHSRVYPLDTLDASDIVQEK
T2 sequence (Q08460 66-246 partner): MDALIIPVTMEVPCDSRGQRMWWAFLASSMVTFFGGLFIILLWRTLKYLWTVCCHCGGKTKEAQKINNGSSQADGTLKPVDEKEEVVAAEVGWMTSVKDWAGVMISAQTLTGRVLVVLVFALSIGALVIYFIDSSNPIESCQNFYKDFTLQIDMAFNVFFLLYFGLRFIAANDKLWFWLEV

sperm = details: cited from earlier work
[4] = target: T2, MC13 (Slo1(1-181):Slo3(171-1121)); assay type: cell-based
[5] = quinidine; cited from earlier work
[6] = pK and percent protonation of tertiary amines; assay type: physicochemical; details: quinidine at pH 8.5; calculated from pK 8.6
IRK1 = details: read-out: EC50, block of IRK1; cited from earlier work
mouse Slo1 K+ channels [7] = target: T1, mouse Slo1 K+ channels; assay: Block of Slo1 currents, blocker applied extracellularly to outside-out patches; assay type: cell-based
[8] = extracellular quinidine, pH 8.5, fit OB-CB (2') 4 params
[9] = intracellular quinidine, pH 8.5, fit OB-CB (2') 4 params
[10] = extracellular quinidine, 300 μM Ca2+, pH 8.5, fit OB-CB (2') 4 params

Kb (mouse Slo1 K+ channels [2]): 92.8 ± 9.8 µM
Kd (mouse Slo1 K+ channels [2]): 207 ± 7.4 µM
effective change in Kb(0), pH 8.5 versus pH 7.0 (mouse Slo1 K+ channels [2]; cytosolic quinidine): 1.56 fold
zδ (mouse Slo1 K+ channels [2]; cytosolic quinidine, 10 μM Ca2+ at pH 7.0, Eqn. 1 open channel block): 0.11 ± 0.03 e
zo (mouse Slo1 K+ channels [2]; intracellular quinidine, 300 μM Ca2+, pH 8.5, fit OB-CB (2a) 2 params): 0.28 ± 0.02 e
quinidine concentration giving strong block of Slo3 ([3]; at potentials near 0 mV, irrespective of the side of application): less than 10 μM
zc [3, 8]: -0.55 ± 1.5 e
zo [3, 8]: -0.27 ± 0.02 e
change in effective Kb(0), pH 8.5 versus pH 8.2 ([4]; cytosolic quinidine, Scheme 2a): approximately 2 fold
zc [4, 9]: -0.15 ± 0.38 e
zo [4, 9]: -0.38 ± 0.10 e
block of MC13 at lower concentrations than block of Slo1 currents ([4]; quinidine, at potentials near 0 mV): ~ 100 fold
percent protonated [6]: 55.7% and 55.73%
Kb (mouse Slo1 K+ channels [7]): 950 ± 20 µM
Kd (mouse Slo1 K+ channels [7]; Kbc, extracellular quinidine, 300 μM Ca2+, pH 8.5, fit OB-CB (2') 4 params): 1200 ± 210 µM
Kd (mouse Slo1 K+ channels [7]; Kbo, extracellular quinidine pH 7.0, 300 μM Ca2+, pH 8.5, fit OB (1a) 2 params): 950 ± 20 µM
Kd (mouse Slo1 K+ channels [7]; Kbo, extracellular quinidine, 300 μM Ca2+, pH 8.5, fit OB-CB (2') 4 params): 1510 ± 160 µM
Kd (mouse Slo1 K+ channels [7]; Kbo, extracellular quinidine, 300 μM Ca2+, pH 8.5, fit OB-CB (2a) 2 params): 1490 ± 40 µM
zo (zδ) (mouse Slo1 K+ channels [7]; extracellular quinidine pH 7.0, 300 μM Ca2+, pH 8.5, fit OB (1a) 2 params): 0.047 ± 0.01 e and 0.05 ± 0.01 e
zc (mouse Slo1 K+ channels [7]; [10]): 0.66 ± 0.1 e
zo (mouse Slo1 K+ channels [7]; [10]): 0.06 ± 0.08 e
Structure (SMILES): C=C[C@H]1C[N@@]2CC[C@H]1C[C@@H]2[C@@H](O)c1ccnc2ccc(OC)cc12 [quinidine]
inhibition of ROMK1 (ROMK1): only moderately inhibited
block of native KSper K+ channel [1]: strongly block
lowest concentration at which effects on sperm function have been reported (sperm): 20 µM
pK (one protonatable site) [5]: ~4.2
pK (second protonatable site, value used) [5]: 8.6
EC50 (IRK1): 700 µM
